{"source": "patent US8912202B2", "about": "“N-(benzimimdazol-2-yl)-cyclopropane carboxamides as lysophosphatidic acid antagonists” (Merck Patent GmbH, priority 2011, dated 2014)", "data": [{"molecular_target": "T1, LPA2R (Homo sapiens, UniProt Q9HBW0)", "T1 construct": "expressed in transfected cells; host or cells: U2OS", "T1 sequence (Q9HBW0 whole entry)": "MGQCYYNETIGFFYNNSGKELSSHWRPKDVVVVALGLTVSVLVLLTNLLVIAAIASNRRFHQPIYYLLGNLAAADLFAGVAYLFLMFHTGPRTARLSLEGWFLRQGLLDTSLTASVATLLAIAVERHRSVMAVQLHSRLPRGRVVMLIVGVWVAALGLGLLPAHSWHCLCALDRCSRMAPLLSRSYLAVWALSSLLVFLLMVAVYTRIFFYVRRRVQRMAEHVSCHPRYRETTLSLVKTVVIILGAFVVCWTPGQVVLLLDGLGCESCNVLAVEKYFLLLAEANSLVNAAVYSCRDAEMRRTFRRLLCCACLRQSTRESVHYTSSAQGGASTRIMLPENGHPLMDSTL", "assay": "LPA2R-Calciumflux assay (FLIPR, intracellular calcium mobilisation after LPA)", "assay_type": "cell-based", "details": "U2OS cells recombinant expressing LPA2R; antagonism of LPA-induced calcium flux; racemate of the two trans enantiomers unless marked enantiomer", "source_text": "The assay detects intra cellular calcium which is generated by cells upon activation of the LPA2 receptor by its ligand LPA. This transient calcium mobilization can be monitored using a commercial calcium detection kit (e.g. from Molecular Devices). The main component of such a kit is a dye, which becomes fluorescent when calcium is present—a transient fluorescence signal after addition of a ligand to a test well are the result. Readers like the FLIPR (Molecular Devices) can be used to monitor such transient “Ca-flux” signals.\nThe signals are calculated according to peak maximum minus base line.\nCompounds which are antagonists of LPA lead to a decreased mobilisation of intracellular calcium and thus to a lower signal. The assay is performed in microplates (384 wells per plate).\nLPA2R-Calciumflux Assay Protocol\nThe assay is run according to the following procedure:\n50 uL seed cells (10000 cells/well in DMEM buffer)\n• Incubate 24 h at 37° C., 10% CO2 • aspirate medium 50 uL add calcium dye 1×HBSS/HEPES buffer • incubate 1 h at 37° C. (“loading”) • equilibrate 10 min at RT 5 uL add compounds in HEPES buffer • shake 10 sec. at 1000 rpm • incubate 15 min at RT 20 uL add LPA (in the FLIPR Tetra) in Krebs-buffer/BSA & measurement\nThe cells are seeded in DMEM buffer (DMEM, 10% FCS, 10 mM HEPES, 1% Pen/Strep).\nDye loading is done in HBSS/HEPES buffer (100 mL 10×HBSS+20 mL 1M HEPES+880 mL water, pH 7.4)\nThe LPA is added in Krebs/BSA buffer (120 mM NaCl, 5 mM KCl, 0.62 mM MgSO4, 1.8 mM CaCl2, 10 mM HEPES, 6 mM D(+)-Glucose, 0.2% BSA, pH 7.4).\nThe compounds are pre-diluted in HEPES buffer (20 mM, pH 7.4), whereby the final DMSO content in the assay is kept at 1%. The compounds are pre-diluted in order to generate dose response series on the microplates. The dose response series consist of 10 concentrations for each compound from 30 uM final to 1 nM final. From all compound wells the resulting signals are referred to control wells (located on each plate besides the compound wells) in terms of % activity.\nFrom these % activity values—along with the corresponding compound concentrations—IC50 values are fitted for each compound using standard fitting programs such as Graphpad Prism. Here the method “log(inhibitor) vs. response—Variable slope” is used.", "units": {"IC50": "nM"}, "values": [{"compound": "O=C(Nc1n[nH]c2ccccc12)C1CC1c1ccccc1", "note": "(racemic) [2-Phenyl-cyclopropane-carboxylic acid (1H-indazol-3-yl)-amide]", "IC50": "> 10000"}, {"compound": "O=C(Nc1nc2cccnc2[nH]1)C1CC1c1ccccc1", "note": "(racemic) [2-Phenyl-cyclopropane-carboxylic acid (3H-imidazo[4,5-b]pyridin-2-yl)-amide]", "IC50": "10 to 100"}, {"compound": "O=C(Nc1nc2ccncc2[nH]1)C1CC1c1ccccc1", "note": "(racemic) [2-Phenyl-cyclopropane-carboxylic acid (3H-imidazo[4,5-c]pyridin-2-yl)-amide]", "IC50": "> 10000"}, {"compound": "O=C(Nc1nc2c(Cl)cc(Cl)cc2[nH]1)C1CC1c1ccccc1", "note": "(racemic) [2-Phenyl-cyclopropane-carboxylic acid (4,6-dichloro-1H-benzoimidazol-2-yl)-amide]", "IC50": "100 to 1000"}, {"compound": "Nc1cccc2[nH]c(NC(=O)C3CC3c3ccccc3)nc12", "note": "(racemic) [2-Phenyl-cyclopropane-carboxylic acid (4-amino-1H-benzoimidazol-2-yl)-amide]", "IC50": "10 to 100"}, {"compound": "O=C(Nc1nc2ccnc(Cl)c2[nH]1)C1CC1c1ccccc1", "note": "(racemic) [2-Phenyl-cyclopropane-carboxylic acid (4-chloro-3H-imidazo[4,5-c]pyridin-2-yl)-amide]", "IC50": "10 to 100"}, {"compound": "O=C(Nc1nc2c([N+](=O)[O-])cccc2[nH]1)C1CC1c1ccccc1", "note": "(racemic) [2-Phenyl-cyclopropane-carboxylic acid (4-nitro-1H-benzoimidazol-2-yl)-amide]", "IC50": "10 to 100"}, {"compound": "O=C(Nc1nc2c([N+](=O)[O-])cc(C(F)(F)F)cc2[nH]1)C1CC1c1ccccc1", "note": "(racemic) [2-Phenyl-cyclopropane-carboxylic acid (4-nitro-6-trifluoromethyl-1H-benzoimidazol-2-yl)-amide]", "IC50": "100 to 1000"}, {"compound": "O=C(Nc1nc2cc(Cl)c(Cl)cc2[nH]1)C1CC1c1ccccc1", "note": "(racemic) [2-Phenyl-cyclopropane-carboxylic acid (5,6-dichloro-1H-benzoimidazol-2-yl)-amide]", "IC50": "100 to 1000"}, {"compound": "Cc1cc2nc(NC(=O)C3CC3c3ccccc3)[nH]c2cc1C", "note": "(racemic) [2-Phenyl-cyclopropane-carboxylic acid (5,6-dimethyl-1H-benzoimidazol-2-yl)-amide]", "IC50": "10 to 100"}, {"compound": "NCc1ccc2[nH]c(NC(=O)C3CC3c3ccccc3)nc2c1", "note": "(racemic) [2-Phenyl-cyclopropane-carboxylic acid (5-aminomethyl-1H-benzoimidazol-2-yl)-amide]", "IC50": "1000 to 10000"}, {"compound": "N#Cc1ccc2nc(NC(=O)C3CC3c3ccccc3)[nH]c2c1", "note": "(racemic) [2-Phenyl-cyclopropane-carboxylic acid (5-cyano-1H-benzoimidazol-2-yl)-amide]", "IC50": "10 to 100"}, {"compound": "CCc1ccc2[nH]c(NC(=O)C3CC3c3ccccc3)nc2c1", "note": "(racemic) [2-Phenyl-cyclopropane-carboxylic acid (5-ethyl-1H-benzoimidazol-2-yl)-amide]", "IC50": "10 to 100"}, {"compound": "COc1ccc2[nH]c(NC(=O)C3CC3c3ccccc3)nc2c1", "note": "(racemic) [2-Phenyl-cyclopropane-carboxylic acid (5-methoxy-1H-benzoimidazol-2-yl)-amide]", "IC50": "10 to 100"}, {"compound": "O=C(Nc1nc2cc(Br)cnc2[nH]1)C1CC1c1ccccc1", "note": "(racemic) [2-Phenyl-cyclopropane-carboxylic acid (6-bromo-3H-imidazo[4,5-b]pyridin-2-yl)-amide]", "IC50": "< 10"}, {"compound": "O=C(Nc1nc2cc(Cl)ccc2[nH]1)C1CC1c1ccccc1", "note": "(racemic) [2-Phenyl-cyclopropane-carboxylic acid (6-chloro-1H-benzoimidazol-2-yl)-amide]", "IC50": "10 to 100"}, {"compound": "Cc1ccc2nc(NC(=O)C3CC3c3ccccc3)[nH]c2c1", "note": "(racemic) [2-Phenyl-cyclopropane-carboxylic acid (6-methyl-1H-benzoimidazol-2-yl)-amide]", "IC50": "100 to 1000"}, {"compound": "O=C(Nc1nc2cc(C(F)(F)F)ccc2[nH]1)C1CC1c1ccccc1", "note": "(racemic) [2-Phenyl-cyclopropane-carboxylic acid (6-trifluoromethyl-1H-benzoimidazol-2-yl)-amide]", "IC50": "10 to 100"}, {"compound": "Cc1cccc2nc(NC(=O)C3CC3c3ccccc3)[nH]c12", "note": "(racemic) [2-Phenyl-cyclopropane-carboxylic acid (7-methyl-1H-benzoimidazol-2-yl)-amide]", "IC50": "100 to 1000"}, {"compound": "O=C(Nc1nc2cncnc2[nH]1)C1CC1c1ccccc1", "note": "(racemic) [2-Phenyl-cyclopropane-carboxylic acid (9H-purin-8-yl)-amide]", "IC50": "1000 to 10000"}, {"compound": "CCCS(=O)(=O)c1ccc2[nH]c(NC(=O)C3CC3c3ccccc3)nc2c1", "note": "(racemic) [2-Phenyl-cyclopropane-carboxylic acid [5-(propane-1-sulfonyl)-1H-benzoimidazol-2-yl]-amide]", "IC50": "1000 to 10000"}, {"compound": "O=C(Nc1nc2c(NCC3CCN(Cc4ccccc4)CC3)cccc2[nH]1)C1CC1c1ccccc1", "note": "(racemic) [2-Phenyl-cyclopropane-carboxylic acid {4-[(1-benzyl-piperidin-4-ylmethyl)-amino]-1H-benzoimidazol-2-yl}-amide]", "IC50": "1000 to 10000"}, {"compound": "COC(=O)c1cccc2[nH]c(NC(=O)C3CC3c3ccccc3)nc12", "note": "(racemic) [2-[(2-Phenyl-cyclopropane-carbonyl)-amino]-1H-benzoimidazole-4-carboxylic acid methyl ester]", "IC50": "100 to 1000"}, {"compound": "O=C(O)c1ccc2[nH]c(NC(=O)C3CC3c3ccccc3)nc2c1", "note": "(racemic) [2-[(2-Phenyl-cyclopropane-carbonyl)-amino]-1H-benzoimidazole-5-carboxylic acid]", "IC50": "> 10000"}, {"compound": "Cc1cccc(C2CC2C(=O)Nc2nc3ccccc3[nH]2)c1", "note": "(racemic) [2-m-Tolyl-cyclopropane-carboxylic acid (1H-benzoimidazol-2-yl)-amide]", "IC50": "10 to 100"}, {"compound": "Cc1ccc(C2CC2C(=O)Nc2nc3ccccc3[nH]2)cc1", "note": "(racemic) [2-p-Tolyl-cyclopropane-carboxylic acid (1H-benzoimidazol-2-yl)-amide]", "IC50": "1000 to 10000"}, {"compound": "CC(C)(C)OC(=O)NCc1ccc2[nH]c(NC(=O)C3CC3c3ccccc3)nc2c1", "note": "(racemic) [{2-[(2-Phenyl-cyclopropane-carbonyl)-amino]-1H-benzoimidazol-5-ylmethyl}-carbamic acid tert-butyl ester]", "IC50": "100 to 1000"}, {"compound": "O=C(Nc1nc2ccccc2[nH]1)C1CC1c1ccccc1Cl", "note": "(single isomer, unassigned) [enantiomer-2-(2-Chloro-phenyl)-cyclopropane-carboxylic acid (1H-benzoimidazol-2-yl)-amide]", "IC50": "10 to 100"}, {"compound": "O=C(Nc1nc2cc(Cl)cnc2[nH]1)[C@@H]1C[C@H]1c1ccccc1", "note": "(single isomer, unassigned) [trans-2-Phenyl-cyclopropane-carboxylic acid (6-chloro-3H-imidazo[4,5-b]pyridin-2-yl)-amide]", "IC50": "1000 to 10000"}, {"compound": "O=C(Nc1nc2ccccc2[nH]1)C1CC1c1ccccc1", "note": "(single isomer, unassigned; enantiomer-2) [drawing 58, enantiomer-2-Phenyl-cyclopropane-carboxylic acid (1H-benzoimidazol-2-yl)-amide]", "IC50": "1000 to 10000"}, {"compound": "O=C(Nc1nc2ccccc2[nH]1)C1CC1c1ccccc1", "note": "(single isomer, unassigned; enantiomer-2) [drawing 59, enantiomer-2-Phenyl-cyclopropane-carboxylic acid (1H-benzoimidazol-2-yl)-amide]", "IC50": "< 10"}, {"compound": "N#Cc1ccc2nc(NC(=O)C3CC3c3ccccc3)[nH]c2c1", "note": "(single isomer, unassigned; enantiomer-2) [drawing 71, enantiomer-2-Phenyl-cyclopropane-carboxylic acid (6-cyano-1H-benzoimidazol-2-yl)-amide]", "IC50": "10 to 100"}, {"compound": "N#Cc1ccc2nc(NC(=O)C3CC3c3ccccc3)[nH]c2c1", "note": "(single isomer, unassigned; enantiomer-2) [drawing 72, enantiomer-2-Phenyl-cyclopropane-carboxylic acid (6-cyano-1H-benzoimidazol-2-yl)-amide]", "IC50": "1000 to 10000"}, {"compound": "O=C(Nc1nc2ccccc2[nH]1)C1CC1c1ccccc1Cl", "note": "(single isomer, unassigned; enantiomer-2) [drawing 75, enantiomer-2-(2-Chloro-phenyl)-cyclopropane-carboxylic acid (1H-benzoimidazol-2-yl)-amide]", "IC50": "10 to 100"}, {"compound": "O=C(Nc1nc2ccccc2[nH]1)C1CC1c1ccccc1Cl", "note": "(single isomer, unassigned; enantiomer-2) [drawing 76, enantiomer-2-(2-Chloro-phenyl)-cyclopropane-carboxylic acid (1H-benzoimidazol-2-yl)-amide]", "IC50": "> 10000"}]}]}
